Assay results from patent publication US20110105544A1, “CARBOXYLIC DERIVATIVES FOR USE IN THE TREATMENT OF CANCER” (priority 2007, published 2011).

How the values were obtained:
K562 (lymphoma) = experiment: alamarBlue viability assay, K562; assay type: cell-based; settings: Homo sapiens, 72 hours
Procedure: (§1) Additionally, the following cancer cell lines were used:
(§2) Cells were grown in a humidified incubator at 37° C. in 5% CO2.
(§3) Cells were plated in 96-well plates at a density of 6000 cells/well in 100 μl medium 24 h before addition of drugs. […] To do so, a drugs-dilution plate at twice the screening concentrations was prepared. 72 hours later, alamarBlue (Biosource, Invitrogen) viability assay was performed following manufacturer's protocol. In brief, alamarBlue diluted in media was added to cells to have a 5% solution. Cells were incubated at 37° C., 3 hours and at room temperature, 30 min. Cells with no drug and, cells with no drug and lysed with triton X-100 were used as controls. Fluorescence was monitored at 530 nm excitation and 590 nm emission wavelengths. Results were quantified using Infinite F200 Microplate Reader (Tecan Group, Ltd.). EC50 were calculated as the dose of drugs required to inhibit cell growth by 50%, with Origin 7.0 computer program.

[1] = system: human breast cancer cell line MCF-7; experiment: alamarBlue viability assay, MCF-7; assay type: cell-based; settings: MCF7, 72 hours, dose required to inhibit cell growth by 50%
Procedure: (§4) The human colon cancer cell line HCT116 and the human breast cancer cell line MCF-7 were from the American Type Culture Collection (ATCC; CCL-247 and HTB-22, respectively).
(§5) The HCT116 cell line was maintained in DMEM GlutaMAX (Invitrogen) supplemented with 10% fetal calf serum and the MCF7 cell line was maintained in RPMI1640 GlutaMAX (Invitrogen) containing 1 mM sodium piruvate and 10% fetal calf serum.
as §2, §3

MDA-MB-468 (breast) = experiment: alamarBlue viability assay, MDA-MB-468; assay type: cell-based; settings: Homo sapiens, 72 hours
Procedure: as §1, §2
(§6) Cells were plated in 96-well plates at a density of 6000 cells/well in 100 μl medium 24 h before addition of drugs. They were then added in concentrations from 100 μM to 0.45 nM (each concentration in triplicate). To do so, a drugs-dilution plate at twice the screening concentrations was prepared. 72 hours later, alamarBlue (Biosource, Invitrogen) viability assay was performed following manufacturer's protocol. In brief, alamarBlue diluted in media was added to cells to have a 5% solution. Cells were incubated at 37° C., 3 hours and at room temperature, 30 min. Cells with no drug and, cells with no drug and lysed with triton X-100 were used as controls. Fluorescence was monitored at 530 nm excitation and 590 nm emission wavelengths. Results were quantified using Infinite F200 Microplate Reader (Tecan Group, Ltd.). EC50 were calculated as the dose of drugs required to inhibit cell growth by 50%, with Origin 7.0 computer program.

human recombinant HDAC 8 = target: T1, human recombinant HDAC 8 (Homo sapiens, UniProt Q9BY41); experiment: HDAC inhibition assay (Fluor de Lys), HDAC8; assay type: biochemical; settings: inhibitor-protein incubation 0 hours, reaction 3 hours, 37° C.
T1 construct: purchased BPS Bioscience 50008
T1 sequence (Q9BY41 1-377): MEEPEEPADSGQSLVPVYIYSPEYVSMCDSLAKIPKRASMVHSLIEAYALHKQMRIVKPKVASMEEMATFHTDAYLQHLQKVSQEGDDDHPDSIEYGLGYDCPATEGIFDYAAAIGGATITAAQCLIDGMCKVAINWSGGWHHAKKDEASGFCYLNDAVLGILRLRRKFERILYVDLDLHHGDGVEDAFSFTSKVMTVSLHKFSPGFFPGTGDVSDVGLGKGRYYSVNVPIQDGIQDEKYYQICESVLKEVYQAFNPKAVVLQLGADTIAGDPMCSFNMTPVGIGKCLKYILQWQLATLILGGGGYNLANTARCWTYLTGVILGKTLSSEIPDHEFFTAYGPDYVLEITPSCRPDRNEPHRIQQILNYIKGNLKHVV
Procedure: (§7) All assays were carried out in the assay buffer: 50 mM Tris/Cl, pH 8.0, 137 mM NaCl, 2.7 mM KCl, 1 mM MgCl2).
(§8) Reactions were carried out in a 96-wells microplate (Corning 96 well Flat Bottom Non-binding surface (black) ref. 3651).
(§9) Potential inhibitors were added after five fold serial dilutions in DMSO. Final DMSO concentration in the assay microplate was kept at 2%.
(§10) Afterwards, human recombinant HDAC1, HDAC 2 or HDAC 8 were added up to […] respectively in assay buffer. When necessary, the mixture was incubated at room temperature prior the addition of substrate.
(§11) Total reaction volume of 50 μl. Human recombinant HDACs could be acquired from commercial sources (HDAC1: ref. #50001, BPS Bioscience™; HDAC 2: ref. #50002, BPS Bioscience™; HDAC 8: ref. #50008, BPS Bioscience™).
(§12) Reactions were stopped with 50 μl Developer (KI-105 Fluor de Lys™, BIOMOL®) with 2 μmol/L trichostatin A (TSA, final concentration 1 μmol/L). After 20 minutes at 37° C., fluorescence (excitation 360 nm, emission 460 nm) was measured using an Infinite F200 fluorimeter (Tecan). Background was determined in reactions using substrate in the absence of enzyme.
(§13) IC50 values are defined as the compound concentration at which the deacetylase activity is 50% inhibited. In these assays the following grading was used (I: IC50≦10 μM; II: 10 μM<IC50≦100 μM; III: 100 μM<IC50≦1 mM) The results obtained are summarized in Table 4.

PC3 (prostate) = experiment: alamarBlue viability assay, PC3; assay type: cell-based; settings: 72 hours
Procedure: as §1, §2, §3

MDA-MB-435P (breast) = experiment: alamarBlue viability assay, MDA-MB-435P; assay type: cell-based; settings: 72 hours
Procedure: as §1, §2, §6

[2] = system: human colon cancer cell line HCT116; experiment: alamarBlue viability assay, HCT116; assay type: cell-based; settings: HCT-116, 72 hours, dose required to inhibit cell growth by 50%
Procedure: as §4, §5, §2, §3

human recombinant HDAC1 = target: T2, human recombinant HDAC1 (Homo sapiens, UniProt Q13547); experiment: HDAC inhibition assay (Fluor de Lys), HDAC1; assay type: biochemical; settings: inhibitor-protein incubation 0 hours, reaction 3 hours, 25° C.
T2 construct: purchased BPS Bioscience 50001
T2 sequence (Q13547 whole entry): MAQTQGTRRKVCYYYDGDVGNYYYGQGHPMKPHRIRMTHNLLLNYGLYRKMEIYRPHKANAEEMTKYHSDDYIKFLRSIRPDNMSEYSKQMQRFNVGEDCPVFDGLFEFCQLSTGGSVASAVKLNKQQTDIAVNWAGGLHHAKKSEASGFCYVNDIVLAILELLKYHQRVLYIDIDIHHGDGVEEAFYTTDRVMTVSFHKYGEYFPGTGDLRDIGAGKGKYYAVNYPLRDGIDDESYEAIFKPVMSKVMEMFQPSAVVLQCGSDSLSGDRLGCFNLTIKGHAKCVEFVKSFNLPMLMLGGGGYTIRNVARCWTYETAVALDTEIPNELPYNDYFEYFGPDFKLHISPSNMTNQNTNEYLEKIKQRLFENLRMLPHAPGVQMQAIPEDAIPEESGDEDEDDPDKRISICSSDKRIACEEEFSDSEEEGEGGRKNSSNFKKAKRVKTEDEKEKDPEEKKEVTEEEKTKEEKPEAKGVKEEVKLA
Procedure: as §7, §8, §9, §10, §11, §12
(§14) IC50 values are defined as the compound concentration at which the deacetylase activity is 50% inhibited. […]

human recombinant HDAC 2 = target: T3, human recombinant HDAC 2 (Homo sapiens, UniProt Q92769); experiment: HDAC inhibition assay (Fluor de Lys), HDAC2; assay type: biochemical; settings: inhibitor-protein incubation 2 hours, reaction 1 h 30 min, 37° C.
T3 construct: purchased BPS Bioscience 50002
T3 sequence (Q92769 whole entry): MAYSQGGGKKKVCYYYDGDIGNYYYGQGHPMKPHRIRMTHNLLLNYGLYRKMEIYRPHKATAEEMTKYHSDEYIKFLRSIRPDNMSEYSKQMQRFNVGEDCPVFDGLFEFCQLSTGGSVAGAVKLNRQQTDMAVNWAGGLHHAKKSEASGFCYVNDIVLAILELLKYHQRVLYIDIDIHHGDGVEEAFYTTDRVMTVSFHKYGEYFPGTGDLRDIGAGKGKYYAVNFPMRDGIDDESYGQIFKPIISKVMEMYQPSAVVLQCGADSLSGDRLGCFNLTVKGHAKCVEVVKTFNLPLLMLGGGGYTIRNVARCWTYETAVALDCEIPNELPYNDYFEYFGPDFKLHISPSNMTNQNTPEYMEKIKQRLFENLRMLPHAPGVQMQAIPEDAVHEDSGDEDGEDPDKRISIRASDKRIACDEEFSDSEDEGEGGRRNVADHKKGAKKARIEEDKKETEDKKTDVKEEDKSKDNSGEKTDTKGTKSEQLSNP
Procedure: as §7, §8, §9, §10, §11, §12, §13

HDACs = experiment: HDAC inhibition assays, isoform not specified; assay type: biochemical, human; settings: result in words
Procedure: as §7, §8, §9, §10, §11, §12, §14

U87 (glioblastoma) = experiment: alamarBlue viability assay, U87; assay type: cell-based; settings: 72 hours
Procedure: as §1, §2, §6

A549 (lung) = experiment: alamarBlue viability assay, A549; assay type: cell-based; settings: Homo sapiens, 72 hours
Procedure: as §1, §2, §6

HepG2 (hepatocarcinoma) = experiment: alamarBlue viability assay, HepG2; assay type: cell-based; settings: Homo sapiens, 72 hours
Procedure: as §1, §2, §6

T98G (glioblastoma) = experiment: alamarBlue viability assay, T98G; assay type: cell-based; settings: Homo sapiens, 72 hours
Procedure: as §1, §2, §6

SK-mel-98 (melanoma) = experiment: alamarBlue viability assay, SK-mel-98; assay type: cell-based; settings: 72 hours
Procedure: as §1, §2, §6

NP-9 (pancreas) = experiment: alamarBlue viability assay, NP-9; assay type: cell-based; settings: 72 hours
Procedure: The NP-9 cell line from pancreas, was provided by Dr. R. Alemany from Translational Research Laboratory (Institut Catala d'Oncologia). (cf., Cascallò, M. et al., “Ras-dependent Oncolysis with an Adenovirus VAI mutant”, Cancer Research, 2003, 63, 5544-5550). This cells was maintained in DMEM:F12 (Invitrogen) supplemented with 10% fetal calf serum (Invitrogen), L-glutamine […] (Invitrogen), pyruvate […] (Invitrogen).
as §2
as §6, with “EC50 were calculated as the dose of drugs required to inhibit cell growth by 50%, with Origin 7.0 computer program.” left out

Hep3B (hepatocarcinoma) = experiment: alamarBlue viability assay, Hep3B; assay type: cell-based; settings: Homo sapiens, 72 hours
Procedure: as §1, §2, §3

SMILES | EC50 (K562 (lymphoma)) [µM] | EC50 [1] [µM] | EC50 (MDA-MB-468 (breast)) [µM] | IC50 (human recombinant HDAC 8) [µM] | EC50 (PC3 (prostate)) [µM] | EC50 (MDA-MB-435P (breast)) [µM] | EC50 [2] [µM] | IC50 (human recombinant HDAC1) [µM] | IC50 (human recombinant HDAC 2) [µM] | inhibition of the target of these compounds (i.e. HDACs) (HDACs) | EC50 (U87 (glioblastoma)) [µM] | EC50 (A549 (lung)) [µM] | EC50 (HepG2 (hepatocarcinoma)) [µM] | EC50 (T98G (glioblastoma)) [µM] | EC50 (SK-mel-98 (melanoma)) [µM] | EC50 (NP-9 (pancreas)) [µM] | EC50 (Hep3B (hepatocarcinoma)) [µM]
O=C(O)C(CCc1ccccc1)Cc1ccccc1 (centres unmarked) [Example 9, 2-Benzyl-4-phenylbutanoic acid] | 472 | 1060 | 364 | 100 to 1000 | 364 | 242 | 636 |  |  |  |  |  |  |  |  |  | 
O=C(O)C(CCCc1ccccc1)CCc1ccccc1 (centres unmarked) [Example 11, 5-Phenyl-2-(2-phenylethyl)pentanoic acid] |  | 268 |  | 10 to 100 |  | 253 | 177 | 100 to 1000 | 100 to 1000 |  |  |  |  |  |  |  | 
CNS(=O)(=O)c1ccc(CC(CCc2ccccc2)C(=O)O)cc1 (centres unmarked) [Example 12, 2-{4-[(methylamino)sulfonyl]benzyl}-4-phenylbutanoic acid] |  | 5000 |  | 100 to 1000 |  |  | 5000 |  |  | clear inhibition |  |  |  |  |  |  | 
Cc1ccc(NS(=O)(=O)c2cccc(CCCC(CCc3ccccc3)C(=O)O)c2)cc1 (centres unmarked) [Example 36] | 157 |  | 55.4 | 10 to 100 | 168 | 125 | 98 |  | 10 to 100 |  | 105 | 104 | 140 | 118 | 170 | 41 | 99.7
CNS(=O)(=O)c1cccc(CCCC(CCc2ccccc2)C(=O)O)c1 (centres unmarked) [Example 41, 5-(3-[(Methylamino)sulfonyl]phenyl)-2-(2-phenylethyl)pentanoic acid] |  |  |  | 10 to 100 |  |  | 644 | 100 to 1000 | 100 to 1000 |  |  |  |  |  |  |  | 
COc1ccc(NS(=O)(=O)c2cccc(CCCC(CCc3ccccc3)C(=O)O)c2)cc1OC (centres unmarked) [Example 43, 5-(3-{[(3,4-dimethoxyphenyl)amino]sulfonyl}phenyl)-2-(2-phenylethyl)pentanoic acid] | 2.55 |  | 87 | 10 to 100 | 336 | 210 | 75 |  | 100 to 1000 |  |  |  |  |  |  |  | 
CCc1ccc(CCC(CCCc2ccc(S(=O)(=O)Nc3ccccc3)cc2)C(=O)O)cc1 (centres unmarked) [Example 46, 5-[4-(Anilinosulfonyl)phenyl]-2-[2-(4-ethylphenyl)ethyl]pentanoic acid] |  |  | 99.8 | ≤ 10 | 55.6 | 52 | 54 |  | 10 to 100 |  | 43 | 62.3 | 103 | 118 | 78.3 | 102 | 107
O=C(O)C(CCCc1ccccc1)CCc1ccc(OCc2ccccc2)cc1 (centres unmarked) [Example 55, 2-[2-(4-Benzyloxyphenyl)ethyl]-5-phenylpentanoic acid] |  |  | 43 | ≤ 10 | 102 | 16 | 23 |  | 10 to 100 |  |  |  |  |  |  |  | 418
